Patent US8637496B2, “Compounds having a monogalactosyldiacylglycerol synthase inhibitory activity as herbicide or algaecide, herbicide and algaecide compositions” (Commissariat a l'Energie Atomique, priority 2007, dated 2014)
Where a name gives a salt, the structure may show the parent alone.

Target: T1, MGDG synthase in isolated spinach chloroplast envelope membranes (Spinacia oleracea, UniProt Q9SM44)
T1 construct: envelope membranes purified from the lysate by sucrose centrifugation gradient; from tissue; host or cells: envelope membranes of chloroplasts from spinach leaves
T1 sequence (Q9SM44 99-522): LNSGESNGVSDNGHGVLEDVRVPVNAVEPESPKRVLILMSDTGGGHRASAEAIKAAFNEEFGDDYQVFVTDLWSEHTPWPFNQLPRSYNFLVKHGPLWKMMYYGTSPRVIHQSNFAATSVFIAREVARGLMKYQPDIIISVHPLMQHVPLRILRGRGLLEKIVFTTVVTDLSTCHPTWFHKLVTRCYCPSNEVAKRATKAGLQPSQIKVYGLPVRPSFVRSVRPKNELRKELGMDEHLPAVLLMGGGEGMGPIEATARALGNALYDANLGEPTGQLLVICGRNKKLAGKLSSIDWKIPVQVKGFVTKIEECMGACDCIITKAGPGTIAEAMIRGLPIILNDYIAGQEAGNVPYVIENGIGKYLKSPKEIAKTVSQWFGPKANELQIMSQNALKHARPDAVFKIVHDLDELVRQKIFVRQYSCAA
Experiment: MGDG synthase activity in envelope membrane fractions isolated from spinach chloroplasts
Assay type: biochemical
Conditions: Table 1, obtained in the same manner as FIG. 4; read-out: Inhibitory effect on MGDG synthesis in isolated spinach chloroplast envelope membranes
Description: All the operations have been carried out as described in the article by Maréchal, E. et al., J. Biol. Chem., 1995, 270, 5714-5722. Crude chloroplasts were obtained from 3-4 kg of spinach leaves and purified by isopycnic centrifugation using Percoll gradients. Purified intact chloroplasts have then been lysed in hypotonic medium and envelope membranes purified from the lysate by sucrose centrifugation gradient as described in the article by Douce, R. and Joyard, J., (1982) in Methods in Chloroplast Molecular Biology (Edelman, M., Hallick R and Chua N H eds), pp 239-256, Elsevier Science Publishers B.V. Amsterdam.
MGDG synthase activity was assayed as described in the article by Maréchal et al. (1995).

| SMILES | IC50 |
| --- | --- |
| C[C@@H](COC(=O)N1CCC(n2cnc3ccccc32)CC1)N(Cc1ccccc1)Cc1ccccc1 [Compound 1, (S)-2-(dibenzylamino)propyl 4-(1H-benzo[d]imidazol-1-yl)piperidine-1-carboxylate] | 100 to 500 µM |
| C[C@@H](COC(=O)N1CCC(n2c(=O)[nH]c3ncccc32)CC1)N(Cc1ccccc1)Cc1ccccc1 [Compound 2, (S)-2-(dibenzylamino)propyl 4-(2,3-dihydro-2-oxoimidazo[4,5-b]pyridin-1-yl)piperidine-1-carboxylate] | 100 to 500 µM |
| C[C@@H](COC(=O)N1CCCC(n2c(=O)[nH]c3ccccc32)CC1)N(Cc1ccccc1)Cc1ccccc1 (stereo partly drawn) [Compound 4, (S)-2-(dibenzylamino)propyl 4-(1,2-dihydro-2-oxobenzo[d]imidazol-3-yl)azepane-1-carboxylate] | 200 µM |
| C[C@@H](COC(=O)N1CCC(n2c(=O)[nH]c3ccccc32)C1)N(Cc1ccccc1)Cc1ccccc1 (stereo partly drawn) [Compound 6, (S)-2-(dibenzylamino)propyl 3-(1,2-dihydro-2-oxobenzo[d]imidazol-3-yl)pyrrolidine-1-carboxylate] | 50 µM |
| CN(CCOC(=O)N1CCC(n2c(=O)[nH]c3ccccc32)CC1)Cc1ccccc1 [Compound 9, 2-(N-benzyl-N-methylamino)ethyl 4-(1,2-dihydro-2-oxobenzo[d]imidazol-3-yl)piperidine-1-carboxylate] | 100 to 500 µM |
| O=C(OCCCN(Cc1ccccc1)Cc1ccccc1)N1CCC(n2c(=O)[nH]c3ccccc32)CC1 [Compound 10, 3-(dibenzylamino)propyl 4-(1,2-dihydro-2-oxobenzo[d]imidazol-3-yl)piperidine-1-carboxylate] | 45 µM |
| O=C(OCCC(c1ccccc1)c1ccccc1)N1CCC(n2c(=O)[nH]c3ccccc32)CC1 [Compound 12, 3,3-diphenylpropyl 4-(1,2-dihydro-2-oxobenzo[d]imidazol-3-yl)piperidine-1-carboxylate] | 45 µM |
| O=C(OCCN1C(=O)c2ccccc2C1=O)N1CCC(n2c(=O)[nH]c3ccccc32)CC1 [Compound 15, 2-(1,3-dioxoisoindolin-2-yl)ethyl 4-(1,2-dihydro-2-oxobenzo[d]imidazol-3-yl)piperidine-1-carboxylate] | 45 µM |
| CCN(CCOC(=O)N1CCC(n2c(=O)[nH]c3ccccc32)CC1)c1ccccc1 [Compound 17, 2-(ethyl(phenyl)amino)ethyl 4-(2-oxo-2,3-dihydro-1H-benzo[d]imidazol-1-yl)piperidine-1-carboxylate] | 200 µM |
| O=C(OCC(c1ccccc1)c1ccccc1)N1CCC(n2c(=O)[nH]c3ccccc32)CC1 [Compound 18, 2,2-diphenylethyl 4-(1,2-dihydro-2-oxobenzo[d]imidazol-3-yl)piperidine-1-carboxylate] | 50 µM |
| O=c1[nH]c2ccccc2n1C1CCN(C(=S)OCCN(Cc2ccccc2)Cc2ccccc2)CC1 [Compound 19, O-2-(dibenzylamino)ethyl 4-(1,2-dihydro-2-oxobenzo[d]imidazol-3-yl)piperidine-1-carbothioate] | 20 µM |
| C[C@@H](COC(=O)N1CCC(n2c(=O)n(C(=O)c3ccccc3)c3ccccc32)CC1)N(Cc1ccccc1)Cc1ccccc1 [Compound 21, (S)-2-(dibenzylamino)propyl 4-(1,2-dihydro-2-oxo-1-(benzoyl)benzo[d]imidazol-3-yl)piperidine-1-carboxylate] | 50 µM |
| Cn1c(=O)n(C2CCN(C(=O)OC[C@H](Cc3ccccc3)N(Cc3ccccc3)Cc3ccccc3)CC2)c2ccccc21 [Compound 22, (S)-2-(dibenzylamino)-3-phenylpropyl 4-(1,2-dihydro-1-methyl-2-oxobenzo[d]imidazol-3-yl)piperidine-1-carboxylate] | 75 µM |
| C[C@@H](CNC(=S)N1CCC(n2c(=O)[nH]c3ccccc32)CC1)N(Cc1ccccc1)Cc1ccccc1 [Compound 23, N—((S)-2-(dibenzylamino)propyl)-4-(1,2-dihydro-2-oxobenzo[d]imidazol-3-yl)piperidine-1-carbothioamide] | 50 µM |
| O=C(CCCN(Cc1ccccc1)Cc1ccccc1)N1CCC(n2c(=O)[nH]c3ccccc32)CC1 [Compound 24, 1-[1-(4-Dibenzylamino-butyryl)-piperidin-4-yl]-1,3-dihydro-benzoimidazol-2-one] | 25 µM |
| C[C@@H](COC(=O)N1CCC(n2c(=S)[nH]c3ccccc32)CC1)N(Cc1ccccc1)Cc1ccccc1 [Compound 25, (S)-2-(dibenzylamino)propyl 4-(1,2-dihydro-2-thioxobenzo[d]imidazol-3-yl)piperidine-1-carboxylate] | 100 to 500 µM |
| C[C@@H](COC(=O)Nc1ccc(-n2c(=O)[nH]c3ccccc32)cc1)N(Cc1ccccc1)Cc1ccccc1 [Compound 27, 2-(dibenzylamino)propyl 4-(1,2-dihydro-2-oxobenzo[d]imidazol-3-yl)phenylcarbamate] | 45 µM |
| O=C(OCCN(Cc1ccccc1)Cc1ccc([N+](=O)[O-])cc1)N1CCC(n2c(=O)[nH]c3ccccc32)CC1 [Compound 28, 2-(N-(4-nitrobenzyl)-N-benzylamino)ethyl 4-(1,2-dihydro-2-oxobenzo[d]imidazol-3-yl)piperidine-1-carboxylate] | 20 µM |
| CC(C)[C@@H](COC(=O)N1CCC(n2c(=O)[nH]c3ccccc32)CC1)N(Cc1ccccc1)Cc1ccccc1 [Compound 29, (S)-2-(dibenzylamino)-3-methylbutyl 4-(1,2-dihydro-2-oxobenzo[d]imidazol-3-yl)piperidine-1-carboxylate] | 8 µM |
| CC(C)C[C@@H](COC(=O)N1CCC(n2c(=O)[nH]c3ccccc32)CC1)N(Cc1ccccc1)Cc1ccccc1 [Compound 30, (S)-2-(dibenzylamino)-4-methylpentyl 4-(2-oxo-2,3-dihydro-1H-benzo[d]imidazol-1-yl)piperidine-1-carboxylate] | 12 µM |
| CC(C)(C)C(COC(=O)N1CCC(n2c(=O)[nH]c3ccccc32)CC1)N(Cc1ccccc1)Cc1ccccc1 (stereo not drawn) [Compound 31, 2-(dibenzylamino)-3,3-dimethylbutyl 4-(1,2-dihydro-2-oxobenzo[d]imidazol-3-yl)piperidine-1-carboxylate] | 50 µM |
| CC(CCOC(=O)N1CCC(n2c(=O)[nH]c3ccccc32)CC1)N(Cc1ccccc1)Cc1ccccc1 (stereo not drawn) [Compound 32, 3-(dibenzylamino)butyl 4-(1,2-dihydro-2-oxobenzo[d]imidazol-3-yl)piperidine-1-carboxylate] | 35 µM |
| CC(C)(COC(=O)N1CCC(n2c(=O)[nH]c3ccccc32)CC1)N(Cc1ccccc1)Cc1ccccc1 [Compound 33, 2-(dibenzylamino)-2-methylpropyl 4-(1,2-dihydro-2-oxobenzo[d]imidazol-3-yl)piperidine-1-carboxylate] | 50 µM |
| O=C(OC[C@H](c1ccccc1)N(Cc1ccccc1)Cc1ccccc1)N1CCC(n2c(=O)[nH]c3ccccc32)CC1 [Compound 34, (S)-2-(dibenzylamino)-2-phenylethyl 4-(1,2-dihydro-2-oxobenzo[d]imidazol-3-yl)piperidine-1-carboxylate] | 40 µM |
| O=C(OCCN(Cc1ccccc1)c1ccccc1)N1CCC(n2c(=O)[nH]c3ccccc32)CC1 [Compound 35, 2-(N-benzyl-N-phenylamino)ethyl 4-(1,2-dihydro-2-oxobenzo[d]imidazol-3-yl)piperidine-1-carboxylate] | 40 µM |
| C[C@@H](COC(=O)N1CCC(n2c(=O)[nH]c3ccccc32)CC1)N(Cc1ccccc1)Cc1ccc([N+](=O)[O-])cc1 [Compound 36, (S)-2-(benzyl(4-nitrobenzyl)amino)propyl 4-(2-oxo-2,3-dihydro-1H-benzo[d]imidazol-1-yl)piperidine-1-carboxylate hydrochloride] | 50 µM |
| O=C(OCCCN(Cc1ccccc1)Cc1ccc([N+](=O)[O-])cc1)N1CCC(n2c(=O)[nH]c3ccccc32)CC1 [Compound 38, 3-(benzyl(4-nitrobenzyl)amino)propyl 4-(2-oxo-2,3-dihydro-1H-benzo[d]imidazol-1-yl)piperidine-1-carboxylate hydrochloride] | 15 µM |
| COc1ccc(CN(Cc2ccccc2)[C@@H](C)COC(=O)N2CCC(n3c(=O)[nH]c4ccccc43)CC2)cc1 [Compound 39, (S)-2-(benzyl(4-methoxybenzyl)amino)propyl 4-(2-oxo-2,3-dihydro-1H-benzo[d]imidazol-1-yl)piperidine-1-carboxylate hydrochloride] | 60 µM |
| O=C(OCCN(Cc1ccccc1)Cc1ccc(Br)cc1)N1CCC(n2c(=O)[nH]c3ccccc32)CC1 [Compound 40, 2-(benzyl(4-bromobenzyl)amino)ethyl 4-(2-oxo-2,3-dihydro-1H-benzo[d]imidazol-1-yl)piperidine-1-carboxylate hydrochloride] | 15 µM |
| C[C@@H](COC(=O)N1CCC(n2c(=O)[nH]c3ccccc32)CC1)N(Cc1ccccc1)Cc1ccc(Br)cc1 [Compound 41, (S)-2-(benzyl(4-bromobenzyl)amino)propyl 4-(2-oxo-2,3-dihydro-1H-benzo[d]imidazol-1-yl)piperidine-1-carboxylate hydrochloride] | 50 µM |
